Measurements reported in patent US20040162263A1, “Pharmaceutical formulations targeting specific regions of the gastrointesinal tract” (priority 2002, published 2004).
Values after ≈ are worked out from the molar mass of the structure shown. Values joined by “and” are separate entries in the source; they are usually repeats but may differ in a detail not shown here. Identical values can stand only once. Like-named read-outs stand apart in the source and are kept apart here.

What was measured:
[1] = Pharmacokinetics of decitabine in IVAP rabbit model; assay type: in vivo, rabbits; conditions: for bioavailability / AUC(0-inf) / half-life / MRT / TMAX / clearance / Vd / CMAX: rabbit; for MRT: read-out: Mean Residence Time; for clearance: read-out: Clearance (converted); for Vd: read-out: Volume (Vz); for CMAX: read-out: Mean Cmax
Procedure: Decitabine was administered intravenously to IVAP rabbits (n=3) at three doses: 0.75, 1.5 and 2.5 mg/kg. It was also administered at 2.5mg/kg orally and through previously implanted intestinal and vascular access ports in the portal vein (PV), upper small intestine (USI), lower small intestine (LSI) and colon (IC). All routes received the same simple formulation of raw compound dissolved in cold saline. Care was taken to insure doses were delivered immediately (less than 15 minutes) after dissolving the powder and that the liquid formulation was kept on ice up to the time of administration. Blood samples were taken simultaneously from the median auricular artery and through a port in the portal vein at predetermined time points. Plasma was separated and kept frozen at −70° C. until shipped to Xenobiotic Laboratories for analysis.
Pharmacokinetic parameters were calculated using non-compartmental models with the Winnonlin v3.1 program.

[2] = Physico-chemical properties of decitabine (solubility, stability); assay type: physicochemical
[3] = plasma, 2.5 mg/kg, 2.5 mg/kg IC
[4] = plasma, 2.5 mg/kg, 2.5 mg/kg LSI
[5] = plasma, 2.5 mg/kg, 2.5 mg/kg USI
[6] = plasma, 2.5 mg/kg, LSI 2.5 mg/kg
[7] = plasma, 2.5 mg/kg, USI 2.5 mg/kg
[8] = plasma, Overall mean of all doses and routes
[9] = plasma, iv, 0.75 mg/kg, 0.75 mg/kg IV
[10] = plasma, iv, 1.5 mg/kg, 1.5 mg/kg IV
[11] = plasma, iv, 2.5 mg/kg, 2.5 mg/kg IV
[12] = plasma, other: portal vein (PV) via implanted access port, 2.5 mg/kg, 2.5 mg/kg PV
[13] = plasma, other: portal vein (PV) via implanted access port, 2.5 mg/kg, PV
[14] = plasma, po, 2.5 mg/kg, 2.5 mg/kg Oral
[15] = plasma, po, 2.5 mg/kg, Oral 2.5 mg/kg

## Nc1ncn([C@H]2C[C@H](O)[C@@H](CO)O2)c(=O)n1 [decitabine, 5-aza-2′-deoxycytidine]
[1]; PO 2.5 mg/kg, 2.5 mg/kg
  Individual systemic Bioavailability: 28.57% and 38.84%
  systemic Bioavailability, Mean: 35.51%
[1]; PV 2.5 mg/kg
  Individual systemic Bioavailability: 79.63% and 58.11% and 66.02%
  systemic Bioavailability, Mean: 67.92%
[1]; USI 2.5 mg/kg
  Individual systemic Bioavailability: 84.33% and 72.64%
  systemic Bioavailability, Mean: 73.94%
[1]; plasma (systemic), 2.5 mg/kg, IC 2.5 mg/kg, read-out: systemic Bioavailability, Mean
  bioavailability: 34.3%
[1]; plasma (systemic), 2.5 mg/kg, LSI 2.5 mg/kg, read-out: Individual systemic Bioavailability
  bioavailability: 55%
[1]; plasma (systemic), 2.5 mg/kg, LSI 2.5 mg/kg, read-out: systemic Bioavailability, Mean
  bioavailability: 50.4%
[1]; plasma (systemic), 2.5 mg/kg, USI 2.5 mg/kg, read-out: Individual systemic Bioavailability
  bioavailability: 64.8%
[1]; plasma (systemic), po, 2.5 mg/kg, PO 2.5 mg/kg, read-out: Individual systemic Bioavailability
  bioavailability: 39.1%
[1]; plasma (systemic, median auricular artery), 2.5 mg/kg, USI 2.5 mg/kg, read-out: Mean AUC0-inf in Systemic Samples
  AUC(0-inf): 837 ng·h/mL
[1]; plasma (systemic, median auricular artery), po, 2.5 mg/kg, Oral 2.5 mg/kg, read-out: Mean AUC0-inf in Systemic Samples
  AUC(0-inf): 402 ng·h/mL
[1]; [3]
  half-life: 40.8 ± 0.6 min
  MRT: 64.2 ± 1.2 min
[1]; [4]
  half-life: 44.4 ± 3.6 min
  MRT: 55.2 ± 5.4 min
[1]; [5]
  half-life: 47.4 ± 5.4 min
  MRT: 55.2 ± 4.8 min
[1]; plasma, 2.5 mg/kg, IC 2.5 mg/kg
  TMAX: 15 min
[1]; plasma, 2.5 mg/kg, IC
  clearance: 36.8 mL/min/kg
  Vd: 2.16 L/kg
[1]; [6]
  TMAX: 8.4 ± 5.76 min
  CMAX: 736 ± 95.6 ng/mL
[1]; plasma, 2.5 mg/kg, LSI
  clearance: 37.2 mL/min/kg
  Vd: 2.37 L/kg
[1]; plasma, 2.5 mg/kg, PV 2.5 mg/kg, read-out: systemic Bioavailability, Mean
  bioavailability: 67.9%
[1]; [7]
  TMAX: 4.98 min
  CMAX: 1220 ± 280 ng/mL
[1]; plasma, 2.5 mg/kg, USI 2.5 mg/kg, read-out: systemic Bioavailability, Mean
  bioavailability: 73.9%
[1]; plasma, 2.5 mg/kg, USI
  clearance: 37.2 mL/min/kg
  Vd: 2.51 L/kg
[1]; [8]
  half-life: 43.2 ± 4.2 min
  MRT: 55.8 ± 6.6 min
[1]; [9]
  half-life: 43.8 ± 1.8 min
  MRT: 50.4 ± 1.8 min
[1]; plasma, iv, 0.75 mg/kg, IV 0.75 mg/kg, read-out: IV AUC0-inf, Mean
  AUC(0-inf): 340 ng·h/mL
[1]; plasma, iv, 0.75 mg/kg, IV 0.75 mg/kg, read-out: IV AUC0-inf, individual
  AUC(0-inf): 323 ng·h/mL
[1]; [10]
  half-life: 45 ± 2.4 min
  MRT: 49.8 ± 1.8 min
[1]; plasma, iv, 1.5 mg/kg, IV 1.5 mg/kg, read-out: IV AUC0-inf, Mean
  AUC(0-inf): 574 ng·h/mL
[1]; plasma, iv, 1.5 mg/kg, IV 1.5 mg/kg, read-out: IV AUC0-inf, individual
  AUC(0-inf): 557 ng·h/mL
[1]; [11]
  half-life: 35.4 ± 1.2 min
  MRT: 49.8 ± 9 min
[1]; plasma, iv, 2.5 mg/kg, IV 2.5 mg/kg, read-out: IV AUC0-inf, Mean
  AUC(0-inf): 1060 ng·h/mL
[1]; plasma, iv, 2.5 mg/kg, IV 2.5 mg/kg, read-out: IV AUC0-inf, individual
  AUC(0-inf): 1170 ng·h/mL
[1]; plasma, iv, IV (overall)
  clearance: 40 mL/min/kg
  Vd: 2.41 ± 0.41 L/kg
[1]; plasma, other: portal vein (PV) port, 2.5 mg/kg, PV 2.5 mg/kg, read-out: systemic Bioavailability, Mean
  bioavailability: 68%
[1]; [12]
  half-life: 46.2 ± 4.2 min
  MRT: 48 ± 3.6 min
[1]; [13]
  clearance: 55.2 mL/min/kg
  Vd: 3.63 L/kg
[1]; plasma, other: upper small intestine (USI) port, 2.5 mg/kg, USI 2.5 mg/kg, read-out: systemic Bioavailability, Mean
  bioavailability: 74%
[1]; [14]
  half-life: 41.4 ± 15.6 min
  MRT: 72.6 ± 24 min
[1]; [15]
  TMAX: 25.2 ± 8.4 min
  CMAX: 335 ± 134 ng/mL
[1]; plasma, po, 2.5 mg/kg, PO 2.5 mg/kg, read-out: systemic Bioavailability, Mean
  bioavailability: 35.5%
[1]; portal vein plasma, 2.5 mg/kg, LSI 2.5 mg/kg, read-out: Mean AUC0-inf in Portal Vein
  AUC(0-inf): 586 ng·h/mL
[1]; portal vein plasma, 2.5 mg/kg, USI 2.5 mg/kg, read-out: Mean AUC0-inf in Portal Vein
  AUC(0-inf): 833 ng·h/mL
[1]; portal vein plasma, po, 2.5 mg/kg, Oral 2.5 mg/kg, read-out: Mean AUC0-inf in Portal Vein
  AUC(0-inf): 397 ng·h/mL
[1]; systemic plasma (median auricular artery), 2.5 mg/kg, LSI 2.5 mg/kg, read-out: Mean AUC0-inf in Systemic Samples
  AUC(0-inf): 571 ng·h/mL
[2]
  moisture at equilibrium of monohydrate formed on exposure to humidity: 7%
  solubility in alcohol: highly soluble
[2]; 15-30° C., not exposed to humidity
  solid remains stable: 36 months
[2]; pH 7 and 2-8° C.
  degradation rate in aqueous environment: about 0.7 %/hr
[2]; pH 7 and 25° C.
  degradation rate in aqueous environment: 2.5 %/hr
[2]; water
  solubility: ~25 mg/mL (≈ 110 mM)
